Laboratory results: PubChem BioAssay (NCI)
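GI50 marks 50% less growth. Definition used: TGI = concentration required for complete inhibition of growth.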

Key:
Test in all cases: growth of human tumour cells (NCI), 384-well format
[1] = tested on: A498 renal
[2] = tested on: A549 NSCLC
[3] = tested on: ACHN renal
[4] = tested on: BT-549 breast
[5] = tested on: CAKI-1 renal
[6] = tested on: COLO 205 colon
[7] = tested on: DU-145 prostate
[8] = tested on: EKVX NSCLC
[9] = tested on: HCC-2998 colon
[10] = tested on: HCT-116 colon
[11] = tested on: HCT-15 colon
[12] = tested on: HL-60(TB) leukemia
[13] = tested on: HOP-62 NSCLC
[14] = tested on: HOP-92 NSCLC
[15] = tested on: HS 578T breast
[16] = tested on: HT29 colon
[17] = tested on: IGROV1 ovarian
[18] = tested on: KM12 colon
[19] = tested on: LOX IMVI melanoma
[20] = tested on: M14 melanoma
[21] = tested on: MCF7 breast
[22] = tested on: MDA-MB-231 breast
[23] = tested on: MDA-MB-435 melanoma
[24] = tested on: MDA-MB-468 breast
[25] = tested on: MOLT-4 leukemia
[26] = tested on: NCI-H226 lung
[27] = tested on: NCI-H23 lung
[28] = tested on: NCI-H322M lung
[29] = tested on: NCI-H460 NSCLC
[30] = tested on: NCI-H522 lung
[31] = tested on: NCI/ADR-RES ovarian
[32] = tested on: OVCAR-3 ovarian
[33] = tested on: OVCAR-4 ovarian
[34] = tested on: OVCAR-8 ovarian
[35] = tested on: PC-3 prostate
[36] = tested on: RPMI-8226 leukemia
[37] = tested on: RXF 393 renal
[38] = tested on: SF-268 CNS
[39] = tested on: SF-295 CNS
[40] = tested on: SF-539 CNS
[41] = tested on: SK-MEL-5 melanoma
[42] = tested on: SK-OV-3 ovarian
[43] = tested on: SN12C renal
[44] = tested on: SNB-19 CNS
[45] = tested on: SNB-75 CNS
[46] = tested on: SR leukemia
[47] = tested on: T-47D breast
[48] = tested on: TK-10 renal
[49] = tested on: U251 glioblastoma
[50] = tested on: UACC-257 melanoma
[51] = tested on: UACC-62 melanoma
[52] = tested on: 786-0 renal
[53] = tested on: CCRF-CEM leukemia
[54] = tested on: K-562 leukemia
[55] = tested on: MALME-3M melanoma
[56] = tested on: OVCAR-5 ovarian
[57] = tested on: SK-MEL-28 melanoma
[58] = tested on: SW-620 colon
[59] = tested on: UO-31 renal

With `Cc1ccc(Cl)cc1-c1nc(N)nc(Nc2ccc(Br)cc2)n1` the GI50 [1] was 38 nM, the TGI [1] was 14800 nM and the GI50 [2] was 88 nM. It also gave a TGI [2] greater than 100000 nM, a GI50 [3] of 77 nM and a TGI [3] greater than 100000 nM. The GI50 [4] was 49.1 nM, the TGI [4] was 374 nM and the GI50 [5] was 68.8 nM. For the same compound, the TGI [5] was greater than 100000 nM, the GI50 [6] was 34 nM and the TGI [6] was 93.6 nM. The GI50 [7] was 39.5 nM, the TGI [7] was 269 nM and the GI50 [8] was 49.4 nM. It also gave a TGI [8] greater than 100000 nM, a GI50 [9] of 25.9 nM and a TGI [9] of 170 nM. It also gave a GI50 [10] of 45.2 nM, a TGI [10] greater than 100000 nM and a GI50 [11] of 37.4 nM. The TGI [11] was 271 nM, the GI50 [12] was 20.5 nM and the TGI [12] was 35.2 nM. It also gave a GI50 [13] of 36 nM, a TGI [13] of 17600 nM and a GI50 [14] of 10400 nM. It also gave a TGI [14] greater than 100000 nM, a GI50 [15] of 21.4 nM and a TGI [15] of 51.1 nM. It also gave a GI50 [16] of 34.4 nM, a TGI [16] of 15100 nM and a GI50 [17] of 73.3 nM. The TGI [17] was greater than 100000 nM, the GI50 [18] was 43.4 nM and the TGI [18] was 94100 nM. The GI50 [19] was 55.2 nM, the TGI [19] was 569 nM and the GI50 [20] was 28.9 nM. For the same compound, the TGI [20] was 71.2 nM, the GI50 [21] was 50.1 nM and the TGI [21] was greater than 100000 nM. The GI50 [22] was 84.4 nM, the TGI [22] was greater than 100000 nM and the GI50 [23] was 20 nM. It also gave a TGI [23] of 39.4 nM, a GI50 [24] of 174 nM and a TGI [24] of 378 nM. For the same compound, the GI50 [25] was 21 nM, the TGI [25] was 37.2 nM and the GI50 [26] was 35.6 nM. For the same compound, the TGI [26] was 97.8 nM, the GI50 [27] was 49.9 nM and the TGI [27] was greater than 100000 nM. It also gave a GI50 [28] of 409 nM, a TGI [28] greater than 100000 nM and a GI50 [29] of 25.2 nM. It also gave a TGI [29] of 63.3 nM, a GI50 [30] of 23.9 nM and a TGI [30] of 47.9 nM. For the same compound, the GI50 [31] was 20.9 nM, the TGI [31] was 51.3 nM and the GI50 [32] was 22.3 nM. It also gave a TGI [32] of 45.8 nM, a GI50 [33] of 57.3 nM and a TGI [33] of 91800 nM. The GI50 [34] was 51.8 nM, the TGI [34] was greater than 100000 nM and the GI50 [35] was 46 nM. The TGI [35] was 51900 nM, the GI50 [36] was 20 nM and the TGI [36] was 38.3 nM. The GI50 [37] was 32.8 nM, the TGI [37] was 36600 nM and the GI50 [38] was 50.4 nM. It also gave a TGI [38] greater than 100000 nM, a GI50 [39] of 35.5 nM and a TGI [39] of 12600 nM. The GI50 [40] was 36.3 nM, the TGI [40] was 1060 nM and the GI50 [41] was 24.2 nM. It also gave a TGI [41] of 58.6 nM, a GI50 [42] of 38.6 nM and a TGI [42] of 57000 nM. For the same compound, the GI50 [43] was 25.4 nM, the TGI [43] was 37500 nM and the GI50 [44] was 54.1 nM. For the same compound, the TGI [44] was 14400 nM, the GI50 [45] was 45.2 nM and the TGI [45] was 24300 nM. It also gave a GI50 [46] of 17.3 nM, a TGI [46] of 37.6 nM and a GI50 [47] of 23500 nM. For the same compound, the TGI [47] was greater than 100000 nM, the GI50 [48] was 70 nM and the TGI [48] was greater than 100000 nM. For the same compound, the GI50 [49] was 42.8 nM, the TGI [49] was 2870 nM and the GI50 [50] was 40.1 nM. It also gave a TGI [50] greater than 100000 nM, a GI50 [51] of 45.3 nM and a TGI [51] greater than 100000 nM.

With `C=CC(=O)N1C[C@H](COc2nc(Nc3cnn(C)c3)nc3[nH]cc(Cl)c23)[C@@H](OC)C1` the GI50 [52] was 4840 nM, the TGI [52] was 41800 nM and the GI50 [1] was 584 nM. The TGI [1] was 21400 nM, the GI50 [2] was 2250 nM and the TGI [2] was 13100 nM. For the same compound, the GI50 [3] was 1940 nM, the TGI [3] was 15400 nM and the GI50 [4] was 470 nM. It also gave a TGI [4] of 10300 nM, a GI50 [5] of 1170 nM and a TGI [5] of 11900 nM. It also gave a GI50 [53] of 242 nM, a TGI [53] of 544 nM and a GI50 [6] of 540 nM. For the same compound, the TGI [6] was 11100 nM, the GI50 [7] was 2260 nM and the TGI [7] was greater than 100000 nM. For the same compound, the GI50 [8] was 1310 nM, the TGI [8] was 7080 nM and the GI50 [9] was 3860 nM. For the same compound, the TGI [9] was 15000 nM, the GI50 [11] was 2930 nM and the TGI [11] was 12300 nM. For the same compound, the GI50 [12] was 408 nM, the TGI [12] was 1550 nM and the GI50 [13] was 4050 nM. For the same compound, the TGI [13] was 26500 nM, the GI50 [15] was 1370 nM and the TGI [15] was 4190 nM. The GI50 [16] was 4010 nM, the TGI [16] was greater than 100000 nM and the GI50 [17] was 852 nM. It also gave a TGI [17] of 3310 nM, a GI50 [54] of 2140 nM and a TGI [54] of 12300 nM. The GI50 [18] was 287 nM, the TGI [18] was 14300 nM and the GI50 [19] was 1520 nM. It also gave a TGI [19] of 11600 nM, a GI50 [20] of 2170 nM and a TGI [20] of 18200 nM. The GI50 [55] was 8860 nM, the TGI [55] was 21200 nM and the GI50 [21] was 2020 nM. For the same compound, the TGI [21] was 15600 nM, the GI50 [22] was 2780 nM and the TGI [22] was greater than 100000 nM. It also gave a GI50 [23] of 4270 nM, a TGI [23] of 20900 nM and a GI50 [24] of 267 nM. The TGI [24] was 628 nM, the GI50 [25] was 308 nM and the TGI [25] was 833 nM. The GI50 [26] was 394 nM, the TGI [26] was 9420 nM and the GI50 [27] was 1590 nM. It also gave a TGI [27] of 9360 nM, a GI50 [28] of 1390 nM and a TGI [28] of 13800 nM. It also gave a GI50 [29] of 1810 nM, a TGI [29] of 11600 nM and a GI50 [30] of 281 nM. It also gave a TGI [30] of 858 nM, a GI50 [31] of 29300 nM and a TGI [31] greater than 100000 nM. For the same compound, the GI50 [32] was 2720 nM, the TGI [32] was 23600 nM and the GI50 [33] was 1750 nM. The TGI [33] was 23600 nM, the GI50 [56] was 5340 nM and the TGI [56] was greater than 100000 nM. For the same compound, the GI50 [34] was 4150 nM, the TGI [34] was 18700 nM and the GI50 [35] was 4530 nM. The TGI [35] was 20500 nM, the GI50 [36] was 1000 nM and the TGI [36] was 3470 nM. For the same compound, the GI50 [37] was 5760 nM, the TGI [37] was 22300 nM and the GI50 [38] was 1930 nM. It also gave a TGI [38] of 12300 nM, a GI50 [39] of 13300 nM and a TGI [39] of 31500 nM. The GI50 [40] was 1210 nM, the TGI [40] was 3200 nM and the GI50 [57] was 3820 nM. The TGI [57] was 16800 nM, the GI50 [41] was 3010 nM and the TGI [41] was 12200 nM. The GI50 [42] was 556 nM, the TGI [42] was 5050 nM and the GI50 [43] was 633 nM. For the same compound, the TGI [43] was 12800 nM, the GI50 [44] was 5200 nM and the TGI [44] was 23100 nM. The GI50 [45] was 467 nM, the TGI [45] was 1880 nM and the GI50 [46] was 190 nM. The TGI [46] was 351 nM, the GI50 [58] was 673 nM and the TGI [58] was 2110 nM. It also gave a GI50 [47] of 4630 nM, a TGI [47] of 18000 nM and a GI50 [50] of 5210 nM. For the same compound, the TGI [50] was 17100 nM, the GI50 [51] was 912 nM and the TGI [51] was 13500 nM. The GI50 [59] was 7620 nM and the TGI [59] was greater than 100000 nM.
